Laboratory results published in patent US3983102A, “Process for preparing 5"-amino-4',5"-dideoxybutirosin A” (Parke, Davis & Company, priority 1975, dated 1976).
≈ marks a conversion by molar mass, not a printed value.

What was measured:
Assay in all cases: in vitro antibacterial screening, MIC by microtitration in TSB
Assay type in all cases: cell-based
Pseudo. aerug. G-76 = settings: Pseudomonas aeruginosa, Pseudo. aerug. G-76, butirosin and gentamicin resistant
From the text: (§1) They show activity when tested by well-recognized in vitro antibacterial screening procedures.

Pseudo. aerug. LA-3399 = settings: Pseudomonas aeruginosa
From the text: as §1

Entero. cloacae IMM-50 = settings: Enterobacter cloacae, IMM50
From the text: as §1

Staph aureus S18713 = settings: Staphylococcus aureus, Staph aureus S18713, butirosin resistant
From the text: as §1

Pseudo. aerug. 74C-1 = settings: Pseudomonas aeruginosa
From the text: as §1

Esch. coli JR-76.2 = settings: Escherichia coli, JR76.2
From the text: as §1

Pseudo. aerug. VAD12-7-7 = settings: Pseudomonas aeruginosa
From the text: as §1

Pseudo. aerug. 58.38 = settings: Pseudomonas aeruginosa
From the text: as §1

Klebs. pneumoniae MGH-1 = settings: Klebsiella pneumoniae, MGH1
From the text: as §1

Pseudo. aerug. UI-18 = settings: Pseudomonas aeruginosa
From the text: as §1

Pseudo. aerug. 130 = settings: Pseudomonas aeruginosa, Pseudo. aerug. 130, gentamicin resistant
From the text: as §1

Serr. marcescens IMM-5 = settings: Serratia marcescens, IMM5
From the text: as §1

Pseudo. aerug. 733 = settings: Pseudomonas aeruginosa
From the text: as §1

Pseudo. aerug. No. 28 = settings: Pseudomonas aeruginosa
From the text: as §1

Pseudo. aerug. Aquilar = settings: Pseudomonas aeruginosa, butirosin resistant
From the text: as §1

Work on `NCC[C@H](O)C(=O)N[C@@H]1C[C@H](N)[C@@H](O[C@H]2O[C@H](CN)C[C@H](O)[C@H]2N)[C@H](O[C@@H]2O[C@H](CN)[C@H](O)[C@H]2O)[C@H]1O` [I carbonate, 5"-amino-4',5"-dideoxybutirosin A] yielded an MIC (Pseudo. aerug. G-76) of 12.5 µg/mL (≈ 23.2 µM), an MIC (Pseudo. aerug. LA-3399) of 12.5 µg/mL (≈ 23.2 µM) and an MIC (Entero. cloacae IMM-50) of 6.3 µg/mL (≈ 11.7 µM). It also gave an MIC (Staph aureus S18713) of 6.3 µg/mL (≈ 11.7 µM), an MIC (Pseudo. aerug. 74C-1) of 3.1 µg/mL (≈ 5.76 µM) and an MIC (Esch. coli JR-76.2) of 25 µg/mL (≈ 46.4 µM). The MIC (Pseudo. aerug. VAD12-7-7) was 1.6 µg/mL (≈ 2.97 µM), the MIC (Pseudo. aerug. 58.38) was 6.3 µg/mL (≈ 11.7 µM) and the MIC (Klebs. pneumoniae MGH-1) was 6.3 µg/mL (≈ 11.7 µM). It also gave an MIC (Pseudo. aerug. UI-18) of 6.3 µg/mL (≈ 11.7 µM), an MIC (Pseudo. aerug. 130) of 6.3 µg/mL (≈ 11.7 µM) and an MIC (Serr. marcescens IMM-5) of 12.5 µg/mL (≈ 23.2 µM). For the same molecule, the MIC (Pseudo. aerug. 733) was 6.3 µg/mL (≈ 11.7 µM), the MIC (Pseudo. aerug. No. 28) was 3.1 µg/mL (≈ 5.76 µM) and the MIC (Pseudo. aerug. Aquilar) was 25 µg/mL (≈ 46.4 µM).
